Results from patent publication US6699676B1, “Uses of ouabain and ouabain-like molecules in apoptosis related pathologies” (Corporation du Centre de Recherche du Centre, Hospitalier …, priority 1999, dated 2004).

Legend:
caspase-3 [1] = format: biochemical, rat; settings: lysates of VSMC-E1A after 6 hours serum withdrawal, 100 mM added, data not shown
Description: (§1) To examine this hypothesis, we measured the activity of caspases in lysates of VSMC-E1A subjected to 6 hours serum withdrawal has been measured.
(§2) Caspase activity. VSMC-E1A seeded in 20 cm^2 flasks and treated as indicated in FIG. 5 were scratched, transferred to centrifuge tubes, washed twice with PBS and lysed in 0.5 ml of buffer A contaming 50 mM tris-HCl (pH 7.4), 5 mM MgCl2, 1 mM EGTA and 0.1% CHAPS. Then, 50-100 μl of cell lysate was mixed with 600 μl of buffer A containing 1 mM dithiothreitol, 40 μM YVAD-AMC or DEVD-AMC with or without 1 μM of caspase-1 and capspase-3 inhibitors (Ac-YVAD-CHO and Ac-DEVD-CHO, respectively), incubated for 2 hours at 37° C. and diluted 15-fold with 80 mM glycine-NaOH buffer (pH 10). Fluorescence of the samples was measured at ex=365 run and em=465 run and calibrated with AMC in the range of 10 to 100 nM. To measure caspase activity in control and ouabain-treated Jurkat cells, 5 ml of suspension containing ˜2×10^7 cells was transferred onto ice and sedimented. The pellet of cells was washed and treated with 0.3 ml of medium A in the same way as VSMC. Protein content was estimated by Bradford methods.

caspase-1 = target: T1, caspase-1 (Rattus norvegicus, UniProt P43527); format: biochemical; settings: lysates of VSMC-E1A after 6 hours serum withdrawal, 100 mM added, data not shown
T1 construct: we measured the activity of caspases in lysates of VSMC-E1A subjected to 6 hours serum withdrawal; endogenous in cells; host or cells: VSMC-E1A (rat aortic vascular smooth muscle cells transfected with E1A adenoviral protein), cell lysate
T1 sequence (P43527 119-402): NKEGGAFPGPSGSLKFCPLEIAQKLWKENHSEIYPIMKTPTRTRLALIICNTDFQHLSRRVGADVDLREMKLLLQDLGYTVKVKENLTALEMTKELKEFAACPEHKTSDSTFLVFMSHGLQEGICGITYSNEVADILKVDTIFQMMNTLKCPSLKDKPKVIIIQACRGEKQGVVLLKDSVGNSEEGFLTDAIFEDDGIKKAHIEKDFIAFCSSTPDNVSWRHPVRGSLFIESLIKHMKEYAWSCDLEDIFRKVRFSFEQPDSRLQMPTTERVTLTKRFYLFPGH
Description: as §1, §2

Jurkat cells = test: Chromatin cleavage assay in Jurkat cells; format: cell-based, human; settings: for Chromatin fragments (%): Jurkat cells without ouabain, +Fas-L 100 ng/ml, 7 hours
Description: FIG. 4. Effect of ouabain on chromatin cleavage in Jurkat cells. (A) Kinetics of accumulation of chromatin fragments in control (curves 1, 3) and ouabain-treated (curves 2, 4) cells in the absence (curves 1, 2) or presence (curves 3, 4) of 100 ng/ml of anti-human Fas (mouse monoclonal IgM, Upstate Biotechnology, Lake Placid, N.Y.); (B) Content of chromatin fragments in Jurkat cells subjected to 3 hours of incubation with or without 1 mM ouabain, 0.25 μM staurosporine and 350 mM mannitol. In both experiments, ouabain was added 2 hours before triggering of apoptosis. Mean values±S.E. obtained in experiments performed in triplicate are given.
To estimate chromatin cleavage, cells were incubated for 2 hours in the presence of 10% calf serum in the control solution (DMEM, [Na^+]=137 mM; [K^+]=5 mM—line 1) or under equimolar substitution of NaCl with KCl ([Na^+]=14 mM; [K^+]=128 mM—line 2) with or without 1 mM ouabain and then for an additional 7 hours at the same media with or without 100 ng/ml Fas ligand (Fas-L). Intracellular Na^+ and K^+ content was measured as steady-state distribution of isotopes after 24 hours preincubation of cells in control Na^+-enriched solution containing 0.5 μCi/ml ^86Rb or 2 μCi/ml ^22Na, and an additional 6 hours incubation in Na^+—(line 1) or K^+—(line 2) enriched medium containing 10% calf serum, isotopes with the same specific activity with or without 1 mM ouabain. For more details see Experimental Procedures. Mean values±S.E. obtained in experiments performed in triplicate are given. ★, #p<0.01 and 0.001 compared to ouabain-untreated cells.
(§3) Cells. VSMC were obtained by explant methods from aortas of 10- to 13-week-old male rats as described previously (17), cultured in DMEM with 10% calf serum, 100 U/ml penicillin, 100 µg/ml streptomycin and used between 10 to 16 passages. Cells transfected with c-myc (VSMC-MYC) and E1A-adenovirus (VSMC-E1A) were obtained in accordance with a previously-described protocol (18,19) and were cultured in the same medium with the addition of 500 µg/ml genticin. Jurkat cells were obtained from the American Type Culture Collection and cultured in RPMI 1640 medium supplied with 10% calf serum, antibiotics, sodium pyruvate, glutamate and β-mercaptoethanol.
Chromatin cleavage assay. Chromatin cleavage in VSMC was estimated by a technique described previously in detail (10). Briefly, VSMC grown in 24-well dishes were labeled for 24 hours in serum-supplied DMEM with [^3H]-thymidine (1 μCi/ml), washed with 2×2 ml of DMEM and incubated in serum-supplied DMEM. In 48 hr, the cells were pretreated with ouabain or K^+-depleted medium as indicated in FIG. 2 and Table 3, washed twice with serum-containing medium and incubated with 0.5 ml of medium with or without ouabain and containing different inducers of apoptosis. To measure the content of chromatin fragments, the cells were transferred on ice and 1 ml of ice-cold lysed buffer (10 mM EDTA, 10 mM tris-HCl, 0.5% triton X100 (pH 8.0)) was added. After 15 min, the cell lysate was transferred to Ependorf tubes, sedimented (12,000 rpm, 10 mm), and 1 ml of supernatant was transferred for the measurement of radioactivity (A1t). The remaining radioactivity from pellets and wells was extracted with 0.5 ml of 1% SDS/4 mM EDTA mixture, combined and counted (A2). Chromatin cleavage was quantified as the content of chromatin fragments normalized by total content of [^3H]-labeled DNA in accordance with the equation [1.5×(A1t−A1o)/(A2+A1t−1.5A1o)]×100% where A1o is the value of A1t before induction of apoptosis. To measure chromatin fragmentation in [^3H]-thymidine-labeled Jurkat cells, they were resuspended at a density of 10^6 cells/ml in medium containing 10% calf serum and the additions indicated in FIG. 4 and Table 4. At the time intervals shown in FIG. 4, 100 μl of cell suspension was mixed with 100 μl of PBS contairung 0.5% triton X100, and the content of chromatin fragments was measured as described previously in detail (20).

caspase-3 [2] = test: Caspase-3 activity in treated Jurkat cells; format: cell-based, human; settings: 3 hours, Fas ligand 100 ng/ml, staurosporine 0.25 μM, mannitol 350 mM
Description: (§4) FIG. 5. Effect of ouabain on caspase-3 activity in VSMC-E1A (A) and Jurkat cells (B). VSMC-E1A and Jurkat cells were pretreated with 1 mM ouabain for 1 and 2 hours, respectively, and the additions indicated below the bars were delivered in media with 10% calf serum and with the baseline (137/5) or inverse (14/128) [Na^+]o/[K^+]o ratio for 6 (VSMC-E1A) or 3 hours (Jurkat cells). In experiments with VSMC-E1A, calf serum (CS) was omitted where indicated (−). Abbreviations: staur.—staurosporine (0.25 μM), ok.ac.—okadaic acid (1 μM), mann.—mannitol (350 mM); Fas-L—Fas ligand (100 ng/ml). Mean values±S.E. obtained in experiments performed in quadruplicate (A) or triplicate (B) are given. ★p<0.001 compared to ouabain-untreated cells.
as §2

VSMC-E1A = test: Chromatin cleavage assay in VSMC-E1A; format: cell-based, rat; settings: VSMC-E1A; for Increment of chromatin fragments triggered by serum withdrawal(%): 1 mM, pretreated 2 hours then 3 hours with or without calf serum, control increment taken as 100%
Description: FIG. 2. Effect of ouabain on chromatin cleavage in VSMC-E1A. (A) Kinetics of the accumulation of chromatin fragments in control (curves 1, 3) and ouabain-treated (curves 2, 4) VSMC-E1A in the presence of 10% calf serum (CS, curves 1, 2) or in CS-free medium (curves 3, 4). Mean values ±S.E. obtained in experiments performed in quadruplicate are given. (B) Content of chromatin fragments in VSMC-E1A subjected to 6 hr of incubation in serum-supplied medium with or without 1 mM ouabain, 0.25 μM staurosporine, 1 μM okadaic acid and 350 mM mannitol. Mean values±S.E. obtained in 3 experiments performed in quadruplicate are given. ★, ★★ p<0.05 and 0.001 compared to ouabain-untreated cells. In both experiments, ouabain was added 1 hour before triggering of apoptosis.
Cells were incubated in K^+-containing medium consisting of 91 mM NaCl, 5 mM KCl, 0.9 mM NaH2PO4, 44 mM NaHCO3, 1.8 mM CaCl2, 0.8 mM MgCl2, 33 mM HEPES and 5 mM D-glucose (pH 7.4) (lines 1 and 2) or in K^+-depleted medium (equimolar substitution of KCl by NaCl, line 3) with or without 10% calf serum (CS) and 1 mM ouabain as indicated. In experiments with VSMC-MYC and VSMC-E1A, cells were preincubated for 1 hr with ouabain or with K^+-depleted medium in the presence of CS and then subjected to treatment with serum-free media. After 24 hours (VSMC) or 6 hours (VSMC-MYC and VSMC-E1A), the content of chromatin fragments was measured as described in Experimental Procedures. Mean values±S.E. obtained in 3 experiments performed in quadruplicate (VSMC) or triplicate (VSMC-MYC, VSMC-E1A) are given. ★, ★★ p<0.05 and 0.001 compared to the controls.
To estimate chromatin cleavage, cells were incubated for 1 hr in the presence of 10% calf serum (CS) in the control solution (DMEM, [Na^+]=137 mM; [K^+]=5 mM—line 1) or under equimolar substitution of NaCl by KCl ([Na^+]=14 mM; [K^+]=128 mM—line 2) with or without 1 mM ouabain and then for an additional 6 hours in the same media with or without CS. Intracellular Na^+ and K^+ content was measured as steady-state distribution of isotopes after 24 hours preincubation of cells in control Na^+-enriched solution containing 0.5 μCi/ml ^86Rb or 2 μCilml ^22Na, and additional 6 hours incubation in Na^+—(line 1) or K^+—(line 2) enriched medium, containing 10% CS and isotopes with the same specific activity with or without 1 mM ouabain. For more details see Experimental Procedures. Mean values±S.E. obtained in 3 experiments performed in triplicate (ion content) or quadruplicate (chromatin cleavage) are given. ★p<0.001 compared to ouabain-untreated cells.
VSMC-E1A cells were pretreated with compounds indicated in the left column during 2 hours in DMEM containing 10% calf serum and then additional 3 hours in the absence or presence of calf serum. The increment of the content of chromatin fragments triggered by serum withdrawal in control cells was taken as 100%. Means+S.E. from experiments performed with quadruplicate are given. ★p<0.001 as compared to control.
as §3
Chromatin cleavage assay. Chromatin cleavage in VSMC was estimated by a technique described previously in detail (10). Briefly, VSMC grown in 24-well dishes were labeled for 24 hours in serum-supplied DMEM with [^3H]-thymidine (1 μCi/ml), washed with 2×2 ml of DMEM and incubated in serum-supplied DMEM. […]

caspase-3 [3] = test: Caspase-3 activity in treated VSMC-E1A; format: cell-based, rat; settings: 6 hours, staurosporine 0.25 μM, okadaic acid 1 μM
Description: as §4, §2

[Cl-].[Na+] [NaCl]
decrease of caspase-3 activity (caspase-3 [1]): the same level of inhibition | decrease of caspase-1 activity (caspase-1): the same level of inhibition

Fas ligand
Chromatin fragments (%) (Jurkat cells; medium [Na+]o=14, [K+]o=128 mM): 20.0±2.2% | Chromatin fragments (%) (Jurkat cells; medium [Na+]o=14, [K+]o=128 mM, listed as Fas-L): 20.2% | Chromatin fragments (%) (Jurkat cells; medium [Na+]o=137, [K+]o=5 mM): 28.5±3.3% | Chromatin fragments (%) (Jurkat cells; medium [Na+]o=137, [K+]o=5 mM, listed as Fas-L): 28.5% | increase of the content of chromatin fragments (Jurkat cells; Jurkat cells, 1.5 hour incubation with Fas ligand 100 ng/ml): 10 fold | increment of the content of chromatin fragments triggered by Fas ligand (Jurkat cells; control Jurkat cells, 7-hr incubation): 23.6±3.9% | increase of caspase-3 activity (caspase-3 [2]): ~30 fold

[Cl-].[K+] [KCl]
decrease of caspase-3 activity (caspase-3 [1]): 10-20% | decrease of caspase-1 activity (caspase-1): 10-20%

C[C@H]1O[C@@H](O[C@H]2[C@@H](O)C[C@H](O[C@H]3[C@@H](O)C[C@H](O[C@H]4CC[C@@]5(C)[C@H](CC[C@@H]6[C@@H]5CC[C@]5(C)[C@@H](C7=CC(=O)OC7)CC[C@]65O)C4)O[C@@H]3C)O[C@@H]2C)C[C@H](O)[C@@H]1O [Digitoxin, 5β,20[22]-cardenolide-3β,14-diol-3[O-2,6-dideoxy-β-D-ribohexopyranosyl-(1->4)-2,3-dideoxy-β-D-ribohexo-pyranosyl]oxy]
Increment of chromatin fragments triggered by serum withdrawal(%) (VSMC-E1A): 24 ± 6 %

C=C1[C@@H](O)[C@@H]2O[C@]3(CC[C@H](/C=C/[C@@H](C)[C@@H]4CC(C)=C[C@@]5(O[C@H](C[C@@](C)(O)C(=O)O)CC[C@H]5O)O4)O3)CC[C@H]2O[C@@H]1[C@@H](O)C[C@H](C)[C@H]1O[C@@]2(CCCCO2)CC[C@H]1C [okadaic acid]
content of chromatin fragments (VSMC-E1A; 6 hr, serum-supplied medium, 0.25 μM staurosporine, 1 μM okadaic acid): 28.3±4.2% | increase of caspase-3 activity (caspase-3 [3]): 10 fold

C[C@H]1O[C@@H](O[C@H]2[C@@H](O)C[C@H](O[C@H]3[C@@H](O)C[C@H](O[C@H]4CC[C@@]5(C)[C@H](CC[C@@H]6[C@@H]5C[C@@H](O)[C@]5(C)[C@@H](C7=CC(=O)OC7)CC[C@]65O)C4)O[C@@H]3C)O[C@@H]2C)C[C@H](O)[C@@H]1O [Digoxin, 12β-hydroxy-digitoxin]
Increment of chromatin fragments triggered by serum withdrawal(%) (VSMC-E1A): 18 ± 4 %
